Where “and” joins values, the source holds several entries; their conditions need not be identical. Equal entries are not always repeated. Inconclusive results and toxic doses are left out.
Tested on: BDF1 mice, P388 leukemia ip, median survival T/C
Test: NCI In Vivo Anticancer Drug Screen. Data for tumor model P388 Leukemia (intraperitoneal) in B6D2F1 (BDF1) mice
Conditions: endpoint: median survival time, higher = longer survival
In short: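 Antitumour effect was judged in vivo: survival in drug-treated mice, normalised to that of vehicle-dosed controls, gives the reported T/C.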

[1] = dose: 50.0 mg/kg/injection, schedule: Q04DX003 (ip), vehicle: saline sonified
[2] = dose: 100.0 mg/kg/injection, schedule: Q04DX003 (ip), vehicle: saline sonified
[3] = dose: 200.0 mg/kg/injection, schedule: Q04DX003 (ip), vehicle: saline sonified
[4] = dose: 100.0 mg/kg/injection, schedule: Q04DX003 (ip), vehicle: saline with Tween-80
[5] = dose: 200.0 mg/kg/injection, schedule: Q04DX003 (ip), vehicle: saline with Tween-80
[6] = dose: 400.0 mg/kg/injection, schedule: Q04DX003 (ip), vehicle: saline with Tween-80
[7] = dose: 100.0 mg/kg/injection, schedule: Q01DX009 (ip), vehicle: saline with Tween-80
[8] = dose: 200.0 mg/kg/injection, schedule: Q01DX009 (ip), vehicle: saline with Tween-80
[9] = dose: 50.0 mg/kg/injection, schedule: Q01DX009 (ip), vehicle: saline
[10] = dose: 100.0 mg/kg/injection, schedule: Q01DX009 (ip), vehicle: saline
[11] = dose: 12.5 mg/kg/injection, schedule: Q01DX009 (ip), vehicle: saline
[12] = dose: 25.0 mg/kg/injection, schedule: Q01DX009 (ip), vehicle: saline
[13] = dose: 50.0 mg/kg/injection, schedule: Q01DX009 (ip), vehicle: saline with Tween-80

COc1ccc([I+]c2ccc(OC)cc2)cc1
T/C (dose: 1.56 mg/kg/injection, schedule: Q01DX009 (ip), vehicle: saline): 100 % of control | T/C (dose: 3.13 mg/kg/injection, schedule: Q01DX009 (ip), vehicle: saline): 100 % of control | T/C (dose: 6.25 mg/kg/injection, schedule: Q01DX009 (ip), vehicle: saline): 109 % of control | T/C (dose: 12.5 mg/kg/injection, schedule: Q04DX003 (ip), vehicle: saline sonified): 100 % of control | T/C (dose: 25.0 mg/kg/injection, schedule: Q04DX003 (ip), vehicle: saline sonified): 100 % of control | T/C [1]: 100 % of control

COc1c(O)c(O)c2c3c(c(O)c4c2c1C(=O)C=C4C)C(C)(C)C(C)O3 (centres undefined)
T/C (dose: 50.0 mg/kg/injection, schedule: Q04DX001 (ip), vehicle: saline): 104 % of control | T/C (dose: 100.0 mg/kg/injection, schedule: Q04DX001 (ip), vehicle: saline): 100 % of control | T/C (dose: 200.0 mg/kg/injection, schedule: Q04DX001 (ip), vehicle: saline): 100 % of control

CC1CC(C)(C)N=C(C(C)CC(C)(C)C)O1 (centres undefined)
T/C [1]: 90 % of control | T/C [2]: 100 % of control | T/C [3]: 100 % of control

CCc1c(C(OC)OC)[nH]c(=S)[nH]c1=O
T/C [4]: 91 % of control | T/C [5]: 91 % of control | T/C [6]: 87 % of control

COc1cc(OC)cc(C2N(Cc3ccc(OC)c(OC)c3)CCN2Cc2ccc(OC)c(OC)c2)c1
T/C [7]: 100 % of control | T/C [4]: 100 % of control | T/C [8]: 109 % of control | T/C [5]: 100 % of control | T/C (dose: 400.0 mg/kg/injection, schedule: Q01DX009 (ip), vehicle: saline with Tween-80): 109 % of control | T/C [6]: 115 % of control

CCOC(=O)c1cc(-c2ccccc2)[nH]c1-c1ccccc1
T/C [9]: 96 % of control | T/C [10]: 100 % of control | T/C (dose: 200.0 mg/kg/injection, schedule: Q01DX009 (ip), vehicle: saline): 98 % of control

COP(=O)(O)C(Cc1ccccc1)NC(=O)OCc1ccccc1 (centres undefined)
T/C (dose: 25.0 mg/kg/injection, schedule: Q01DX005 (ip), vehicle: distilled water + Tween-80): 100 % of control | T/C (dose: 50.0 mg/kg/injection, schedule: Q01DX005 (ip), vehicle: distilled water + Tween-80): 100 % of control | T/C (dose: 100.0 mg/kg/injection, schedule: Q01DX005 (ip), vehicle: distilled water + Tween-80): 94 % of control

Nc1cccc2c1C(=O)C=CC2=O
T/C (dose: 1.15 mg/kg/injection, schedule: Q01DX009 (ip), vehicle: saline): 112 % of control | T/C (dose: 2.3 mg/kg/injection, schedule: Q01DX009 (ip), vehicle: saline): 108 % of control | T/C (dose: 3.25 mg/kg/injection, schedule: Q04DX003 (ip), vehicle: saline): 121 % of control | T/C (dose: 4.6 mg/kg/injection, schedule: Q01DX009 (ip), vehicle: saline): 108 % of control

COc1ccc(/C=C/c2ccc3ccccc3[n+]2C)c(OC)c1OC
T/C (dose: 5.0 mg/kg/injection, schedule: Q01DX009 (ip), vehicle: Klucel (hydroxypropylcellulose) (HPC)): 109 % of control

CCOC(=O)Nc1cc2c(c(N)n1)N=C(CN(C)c1ccccc1)CN2
T/C (dose: 12.5 mg/kg/injection, schedule: Q01DX001 (ip), vehicle: Klucel (hydroxypropylcellulose) (HPC)): 123 % of control | T/C (dose: 50.0 mg/kg/injection, schedule: Q01DX001 (ip), vehicle: Klucel (hydroxypropylcellulose) (HPC)): 164 % of control | T/C (dose: 100.0 mg/kg/injection, schedule: Q01DX001 (ip), vehicle: Klucel (hydroxypropylcellulose) (HPC)): 211 % of control

CCN(CC)CCCC(C)Nc1cc(C)nc2cc(N(C)C)ccc12 (centres undefined)
T/C (dose: 6.25 mg/kg/injection, schedule: Q01DX009 (ip), vehicle: Klucel (hydroxypropylcellulose) (HPC)): 117 % of control | T/C (dose: 12.5 mg/kg/injection, schedule: Q01DX009 (ip), vehicle: Klucel (hydroxypropylcellulose) (HPC)): 108 % of control

OCCNCCNc1ccnc2cc(Cl)ccc12
T/C [11]: 102 % of control | T/C [12]: 115 % of control | T/C [9]: 116 % of control | T/C [10]: 118 % of control

O=C(O)CC[S-].[Ag+]
T/C (dose: 25.0 mg/kg/injection, schedule: Q01DX009 (ip), vehicle: saline with Tween-80): 90 % of control | T/C [13]: 90 % of control | T/C [7]: 86 % of control

CCOC(=O)/C=C(/C)Sc1cc(O)c2ccccc2c1O
T/C (dose: 1.56 mg/kg/injection, schedule: Q01DX009 (ip), vehicle: saline with Tween-80): 101 % of control and 124 % of control | T/C (dose: 3.13 mg/kg/injection, schedule: Q01DX009 (ip), vehicle: saline with Tween-80): 119 % of control and 120 % of control | T/C (dose: 6.25 mg/kg/injection, schedule: Q01DX009 (ip), vehicle: saline with Tween-80): 124 % of control | T/C (dose: 12.5 mg/kg/injection, schedule: Q01DX009 (ip), vehicle: saline with Tween-80): 114 % of control

O.O=c1[nH]cc(Cl)c(=O)[nH]1.[NH2-].[NH2-].[Pt+2]
T/C (dose: 6.25 mg/kg/injection, schedule: Q01DX009 (ip), vehicle: water): 118 % of control | T/C (dose: 12.5 mg/kg/injection, schedule: Q01DX009 (ip), vehicle: water): 155 % of control | T/C (dose: 12.5 mg/kg/injection, schedule: Q04DX003 (ip), vehicle: water): 123 % of control | T/C (dose: 25.0 mg/kg/injection, schedule: Q01DX009 (ip), vehicle: water): 229 % of control and 171 % of control | T/C (dose: 25.0 mg/kg/injection, schedule: Q04DX003 (ip), vehicle: water): 166 % of control | T/C (dose: 50.0 mg/kg/injection, schedule: Q01DX009 (ip), vehicle: water): 192 % of control | T/C (dose: 50.0 mg/kg/injection, schedule: Q04DX003 (ip), vehicle: water): 200 % of control

COc1ccc(C(C)(C#N)Nc2ccccc2)cc1 (centres undefined)
T/C [1]: 100 % of control | T/C [2]: 100 % of control | T/C [3]: 100 % of control

CCCCOn1nnc2cc(Cl)ccc21
T/C [13]: 97 % of control | T/C [7]: 101 % of control | T/C [8]: 117 % of control

COc1ccc2nc(Cl)c(C)c(C)c2c1
T/C [11]: 96 % of control | T/C [12]: 88 % of control | T/C (dose: 25.0 mg/kg/injection, schedule: Q04DX003 (ip), vehicle: saline): 100 % of control | T/C [9]: 93 % of control | T/C (dose: 50.0 mg/kg/injection, schedule: Q04DX003 (ip), vehicle: saline): 100 % of control | T/C (dose: 100.0 mg/kg/injection, schedule: Q04DX003 (ip), vehicle: saline): 109 % of control | T/C (dose: 200.0 mg/kg/injection, schedule: Q04DX003 (ip), vehicle: saline): 90 % of control | T/C (dose: 400.0 mg/kg/injection, schedule: Q01DX009 (ip), vehicle: saline): 92 % of control | T/C (dose: 400.0 mg/kg/injection, schedule: Q04DX003 (ip), vehicle: saline): 100 % of control

CCN(CC)c1ccc(N)cc1
T/C (dose: 6.25 mg/kg/injection, schedule: Q04DX003 (ip), vehicle: other): 100 % of control | T/C (dose: 12.5 mg/kg/injection, schedule: Q01DX009 (ip), vehicle: other): 100 % of control | T/C (dose: 12.5 mg/kg/injection, schedule: Q04DX003 (ip), vehicle: other): 115 % of control | T/C (dose: 25.0 mg/kg/injection, schedule: Q01DX009 (ip), vehicle: other): 120 % of control | T/C (dose: 25.0 mg/kg/injection, schedule: Q04DX003 (ip), vehicle: other): 110 % of control

C[n+]1c(/C=C/c2ccc(O)c3ncccc23)[se]c2ccccc21
T/C (dose: 0.25 mg/kg/injection, schedule: Q01DX010 (ip), vehicle: saline): 104 % of control | T/C (dose: 0.5 mg/kg/injection, schedule: Q01DX010 (ip), vehicle: saline): 118 % of control | T/C (dose: 1.0 mg/kg/injection, schedule: Q01DX010 (ip), vehicle: saline): 104 % of control | T/C (dose: 1.5 mg/kg/injection, schedule: Q01DX010 (ip), vehicle: acetone): 165 % of control | T/C (dose: 3.0 mg/kg/injection, schedule: Q01DX010 (ip), vehicle: acetone): 165 % of control | T/C (dose: 3.0 mg/kg/injection, schedule: Q01DX010 (ip), vehicle: saline): 122 % of control | T/C (dose: 6.0 mg/kg/injection, schedule: Q01DX010 (ip), vehicle: acetone): 185 % of control | T/C (dose: 25.0 mg/kg/injection, schedule: Q01DX010 (ip), vehicle: saline): 118 % of control

CC(C)C(Br)C(=O)NC(Cc1ccccc1)C(=O)O (centres undefined)
T/C [4]: 109 % of control | T/C [5]: 100 % of control | T/C [6]: 95 % of control

CC1(C)CCCC(Cl)(C(Cl)c2ccccc2)C1=O (centres undefined)
T/C (dose: 75.0 mg/kg/injection, schedule: Q01DX001 (ip), vehicle: other): 100 % of control | T/C (dose: 150.0 mg/kg/injection, schedule: Q01DX001 (ip), vehicle: other): 95 % of control | T/C (dose: 300.0 mg/kg/injection, schedule: Q01DX001 (ip), vehicle: other): 95 % of control
